Results reported in patent US10954269B2, “Anti-inflammatory tripeptides” (Dr. August Wolff Gmbh & Co. KG Arzneimittel, priority 2013, dated 2021).
[ ]: non-standard residue; d: D form. Aib = CC(C)(N)C(=O)O

System: primary murine T-cells
Assay: Cytokine secretion on protein level in activated primary murine T-cells (13-plex FACS / Luminex, supernatant)
Type: cell-based, C57BL/6 mice
Details: for IFN-γ* cytokine concentration / IL-2* cytokine concentration: 1:10 dilution of the supernatants
In short: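 T-cells from secondary lymphatic organs of naïve C57BL/6 mice, stimulated with PMA/Ionomycin or IFN-γ; supernatant cytokines measured by 13-plex FACS 48 h and 72 h after stimulation. In another run, PMA/Ionomycin-stimulated cells received compounds at 10^−7, 10^−9 and 10^−11 M, with IFN-γ, IL-17 and IL-10 measured by Luminex.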

[1] = primary murine T-cells stimulated with IFN-γ, 10^−9M
[2] = primary murine T-cells stimulated with IFN-γ, substance 10^−9M
[3] = primary murine T-cells stimulated with PBS, 10^−9M
[4] = primary murine T-cells stimulated with PBS, substance 10^−9M
[5] = primary murine T-cells stimulated with PMA/Ionomycin, 10^−9M
[6] = primary murine T-cells stimulated with PMA/Ionomycin, substance 10^−9M

## H-Lys-[dP]-Thr-OH [K(D)PT, reference compound]
[1]
  IL-1 cytokine concentration: 26.6 pg/mL
  IL-2 cytokine concentration: 0 pg/mL
  IL-4 cytokine concentration: 0 pg/mL
  IL-5 cytokine concentration: 0 pg/mL
  IL-6 cytokine concentration: 0 pg/mL
  IL-10 cytokine concentration: 0 pg/mL
  IL-13 cytokine concentration: 0 pg/mL
  IL-17 cytokine concentration: 0 pg/mL
  IL-21 cytokine concentration: 0 pg/mL
  IL-22 cytokine concentration: 0 pg/mL
  IL-27 cytokine concentration: 209.12 pg/mL
  TNF-α cytokine concentration: 0 pg/mL
[2]
  IL-1 cytokine concentration: 93.77 pg/mL
  IL-2 cytokine concentration: 98.22 pg/mL
  IL-4 cytokine concentration: 85.32 pg/mL
  IL-5 cytokine concentration: 271.81 pg/mL
  IL-6 cytokine concentration: 144.97 pg/mL
  IL-10 cytokine concentration: 1061 pg/mL
  IL-13 cytokine concentration: 0 pg/mL
  IL-17 cytokine concentration: 88.84 pg/mL
  IL-21 cytokine concentration: 0 pg/mL
  IL-22 cytokine concentration: 48.13 pg/mL
  IL-27 cytokine concentration: 0 pg/mL
  TNF-α cytokine concentration: 34.84 pg/mL
[3]
  IFN-γ cytokine concentration: 0 pg/mL
  IL-1 cytokine concentration: 0 pg/mL
  IL-2 cytokine concentration: 0 pg/mL
  IL-4 cytokine concentration: 0 pg/mL
  IL-5 cytokine concentration: 0 pg/mL
  IL-6 cytokine concentration: 27.81 pg/mL
  IL-10 cytokine concentration: 64.53 pg/mL
  IL-13 cytokine concentration: 0 pg/mL
  IL-17 cytokine concentration: 16.26 pg/mL
  IL-21 cytokine concentration: 0 pg/mL
  IL-22 cytokine concentration: 0 pg/mL
  IL-27 cytokine concentration: 25.93 pg/mL
  TNF-α cytokine concentration: 0 pg/mL
[4]
  IFN-γ cytokine concentration: 0 pg/mL
  IL-1 cytokine concentration: 60.41 pg/mL
  IL-2 cytokine concentration: 124.13 pg/mL
  IL-4 cytokine concentration: 71.69 pg/mL
  IL-5 cytokine concentration: 373.93 pg/mL
  IL-6 cytokine concentration: 124 pg/mL
  IL-10 cytokine concentration: 1039.39 pg/mL
  IL-13 cytokine concentration: 0 pg/mL
  IL-17 cytokine concentration: 0 pg/mL
  IL-21 cytokine concentration: 0 pg/mL
  IL-22 cytokine concentration: 78.32 pg/mL
  IL-27 cytokine concentration: 87.48 pg/mL
  TNF-α cytokine concentration: 77.74 pg/mL
[5]
  IL-1 cytokine concentration: 30.27 pg/mL
  IL-4 cytokine concentration: 71.79 pg/mL
  IL-5 cytokine concentration: 280.87 pg/mL
  IL-6 cytokine concentration: 140.97 pg/mL
  IL-10 cytokine concentration: 188.56 pg/mL
  IL-13 cytokine concentration: 4314.15 pg/mL
  IL-17 cytokine concentration: 423.67 pg/mL
  IL-21 cytokine concentration: 0 pg/mL
  IL-22 cytokine concentration: 333.4 pg/mL
  IL-27 cytokine concentration: 99.7 pg/mL
  TNF-α cytokine concentration: 515.54 pg/mL
  IFN-γ* cytokine concentration: 712.81 pg/mL
  IL-2* cytokine concentration: 1288.92 pg/mL
[6]
  IFN-γ cytokine concentration: 2117.29 pg/mL
  IL-1 cytokine concentration: 175.59 pg/mL
  IL-2 cytokine concentration: 152.69 pg/mL
  IL-4 cytokine concentration: 72.07 pg/mL
  IL-5 cytokine concentration: 238.08 pg/mL
  IL-6 cytokine concentration: 201.87 pg/mL
  IL-10 cytokine concentration: 1133.29 pg/mL
  IL-13 cytokine concentration: 0 pg/mL
  IL-17 cytokine concentration: 70.93 pg/mL
  IL-21 cytokine concentration: 0 pg/mL
  IL-22 cytokine concentration: 90.3 pg/mL
  IL-27 cytokine concentration: 126.71 pg/mL
  TNF-α cytokine concentration: 49.63 pg/mL

## H-Phe-Pro-[Aib]-OH [Example 13]
[2]
  IL-1 cytokine concentration: 82.68 pg/mL
  IL-2 cytokine concentration: 237.05 pg/mL
  IL-4 cytokine concentration: 0 pg/mL
  IL-5 cytokine concentration: 342.32 pg/mL
  IL-6 cytokine concentration: 220.06 pg/mL
  IL-10 cytokine concentration: 968.94 pg/mL
  IL-13 cytokine concentration: 0 pg/mL
  IL-17 cytokine concentration: 26.88 pg/mL
  IL-21 cytokine concentration: 0 pg/mL
  IL-22 cytokine concentration: 334.1 pg/mL
  IL-27 cytokine concentration: 151.6 pg/mL
  TNF-α cytokine concentration: 52.48 pg/mL
[4]
  IFN-γ cytokine concentration: 5058.59 pg/mL
  IL-1 cytokine concentration: 64.4 pg/mL
  IL-2 cytokine concentration: 173.84 pg/mL
  IL-4 cytokine concentration: 25.55 pg/mL
  IL-5 cytokine concentration: 401.21 pg/mL
  IL-6 cytokine concentration: 168.6 pg/mL
  IL-10 cytokine concentration: 829.52 pg/mL
  IL-13 cytokine concentration: 0 pg/mL
  IL-17 cytokine concentration: 0 pg/mL
  IL-21 cytokine concentration: 0 pg/mL
  IL-22 cytokine concentration: 0 pg/mL
  IL-27 cytokine concentration: 302.6 pg/mL
  TNF-α cytokine concentration: 62.22 pg/mL
[6]
  IFN-γ cytokine concentration: 8109.91 pg/mL
  IL-1 cytokine concentration: 329.99 pg/mL
  IL-2 cytokine concentration: 260.49 pg/mL
  IL-4 cytokine concentration: 135.41 pg/mL
  IL-5 cytokine concentration: 452.71 pg/mL
  IL-6 cytokine concentration: 404.54 pg/mL
  IL-10 cytokine concentration: 1267.4 pg/mL
  IL-13 cytokine concentration: 0 pg/mL
  IL-17 cytokine concentration: 0 pg/mL
  IL-21 cytokine concentration: 432.64 pg/mL
  IL-22 cytokine concentration: 111.64 pg/mL
  IL-27 cytokine concentration: 387.94 pg/mL
  TNF-α cytokine concentration: 69.4 pg/mL

## alpha-melanocyte-stimulating hormone [α-MSH, reference compound]
[1]
  IL-1 cytokine concentration: 14.89 pg/mL
  IL-2 cytokine concentration: 0 pg/mL
  IL-4 cytokine concentration: 0 pg/mL
  IL-5 cytokine concentration: 0 pg/mL
  IL-6 cytokine concentration: 0 pg/mL
  IL-10 cytokine concentration: 0 pg/mL
  IL-13 cytokine concentration: 0 pg/mL
  IL-17 cytokine concentration: 0 pg/mL
  IL-21 cytokine concentration: 0 pg/mL
  IL-22 cytokine concentration: 0 pg/mL
  IL-27 cytokine concentration: 0 pg/mL
  TNF-α cytokine concentration: 0 pg/mL
[2]
  IL-1 cytokine concentration: 88.22 pg/mL
  IL-2 cytokine concentration: 96.1 pg/mL
  IL-4 cytokine concentration: 20.56 pg/mL
  IL-5 cytokine concentration: 220.39 pg/mL
  IL-6 cytokine concentration: 133.9 pg/mL
  IL-10 cytokine concentration: 1117.07 pg/mL
  IL-13 cytokine concentration: 0 pg/mL
  IL-17 cytokine concentration: 55.11 pg/mL
  IL-21 cytokine concentration: 0 pg/mL
  IL-22 cytokine concentration: 50.6 pg/mL
  IL-27 cytokine concentration: 104.04 pg/mL
  TNF-α cytokine concentration: 36.8 pg/mL
[3]
  IFN-γ cytokine concentration: 0 pg/mL
  IL-1 cytokine concentration: 0 pg/mL
  IL-2 cytokine concentration: 0 pg/mL
  IL-4 cytokine concentration: 0 pg/mL
  IL-5 cytokine concentration: 0 pg/mL
  IL-6 cytokine concentration: 16.44 pg/mL
  IL-10 cytokine concentration: 55.47 pg/mL
  IL-13 cytokine concentration: 0 pg/mL
  IL-17 cytokine concentration: 0 pg/mL
  IL-21 cytokine concentration: 0 pg/mL
  IL-22 cytokine concentration: 0 pg/mL
  IL-27 cytokine concentration: 0 pg/mL
  TNF-α cytokine concentration: 0 pg/mL
[4]
  IFN-γ cytokine concentration: 0 pg/mL
  IL-1 cytokine concentration: 58.5 pg/mL
  IL-2 cytokine concentration: 105.75 pg/mL
  IL-4 cytokine concentration: 62.93 pg/mL
  IL-5 cytokine concentration: 281.14 pg/mL
  IL-6 cytokine concentration: 96.88 pg/mL
  IL-10 cytokine concentration: 1157.87 pg/mL
  IL-13 cytokine concentration: 0 pg/mL
  IL-17 cytokine concentration: 0 pg/mL
  IL-21 cytokine concentration: 0 pg/mL
  IL-22 cytokine concentration: 72.14 pg/mL
  IL-27 cytokine concentration: 77.41 pg/mL
  TNF-α cytokine concentration: 106.1 pg/mL
[5]
  IL-1 cytokine concentration: 28.92 pg/mL
  IL-4 cytokine concentration: 0 pg/mL
  IL-5 cytokine concentration: 262.76 pg/mL
  IL-6 cytokine concentration: 114.47 pg/mL
  IL-10 cytokine concentration: 276.08 pg/mL
  IL-13 cytokine concentration: 3966.69 pg/mL
  IL-17 cytokine concentration: 311.07 pg/mL
  IL-21 cytokine concentration: 0 pg/mL
  IL-22 cytokine concentration: 356.41 pg/mL
  IL-27 cytokine concentration: 0 pg/mL
  TNF-α cytokine concentration: 535.51 pg/mL
  IFN-γ* cytokine concentration: 0 pg/mL
  IL-2* cytokine concentration: 849.44 pg/mL
[6]
  IFN-γ cytokine concentration: 1458.12 pg/mL
  IL-1 cytokine concentration: 217.32 pg/mL
  IL-2 cytokine concentration: 163.19 pg/mL
  IL-4 cytokine concentration: 91.65 pg/mL
  IL-5 cytokine concentration: 215.44 pg/mL
  IL-6 cytokine concentration: 174.22 pg/mL
  IL-10 cytokine concentration: 1250.21 pg/mL
  IL-13 cytokine concentration: 0 pg/mL
  IL-17 cytokine concentration: 29.47 pg/mL
  IL-21 cytokine concentration: 0 pg/mL
  IL-22 cytokine concentration: 143.37 pg/mL
  IL-27 cytokine concentration: 104.52 pg/mL
  TNF-α cytokine concentration: 77.76 pg/mL
